Results reported in patent US20030133908A1, “Treatment for intracranial tumors” (priority 2002, published 2003).

Assays:
[1] = system: RG2 glioma cells; assay: Microglia-mediated tumor cytotoxicity on co-cultured RG2 cells (modified MTT reduction assay); format: cell-based, rat; settings: L-NMA exposure
Protocol: Co-cultures of microglia and RG2 cells were established and cytotoxicity assays were carried out as follows: isolated rat microglial cells (5×10^5 cells/well) were added to a 96-well plate containing 200 μl/well of complete medium. After allowing the cells to adhere for one hour, the medium was aspirated and the appropriate number of RG2 cells (from 2.5×10^4 to 1×10^6 to yield effector:target [E:T] ratios from 0.5:1 to 20:1) was added to the wells in 200 μl of fresh, complete medium. As controls, glioma cells and microglia were cultured separately in other wells of the plate. Microglia-mediated tumor cytotoxicity was measured using a modified MTT reduction assay.
All experiments were performed in quadruplicate. Some co-culture experiments were carried out on glass cover slips to provide visual documentation of cytotoxicity. The cover slips were immersed in paraformaldehyde solution and then subjected to cresyl violet staining.
To determine the contributions of TNF-α and NO to the tumoricidal activity of microglia, MTT cytotoxicity assays were carried out in the presence of TNF-α binding protein (TNF-bp; an inhibitor of TNF-α) and N^G-monomethyl-L-arginine (L-NMA; an inhibitor of NO production).
The effects of TGF-β on microglial tumor cytotoxicity were also investigated in MTT cytotoxicity assays in the presence of TGF-β.

[2] = system: rat microglia; assay: TNF-α production by cultured rat microglia (rat-specific TNF-α ELISA); format: cell-based; settings: in the presence of TGF-β
Protocol: (§1) The ability of cultured rat microglia to produce the soluble cytotoxic agents, TNF-αand nitric oxide, was examined. Rat microglia were harvested and plated in a 96-well plate at a density of 5×10^5 cells/well in 200 μl of serum-free CellGro complete medium (MediaTech, Inc.). In some wells, the medium was supplemented with different concentrations of LPS alone (from E. coli serotype […]; Sigma) while others were supplemented with a combination of LPS and recombinant rat IFN-γ (100 U/ml; R&D Systems). After 24 hours of incubation at 37° C., TNF-α protein in the supernatant of each well was quantified using a Cytoscreen rat-specific TNF-α ELISA kit (Biosource Intl., Camarillo, Calif.), and NO (nitrite) levels in the supernatant of each well were determined using the Griess reaction. All experiments were carried out in triplicate.

[3] = system: rat microglia; assay: Nitric oxide (nitrite) production by cultured rat microglia (Griess reaction); format: cell-based; settings: in the presence of TGF-β
Protocol: as §1

## CNC(=N)NCCC[C@H](N)C(=O)O [L-NMA, N^G-monomethyl-L-arginine]
[1]
  killing of co-cultured RG2 by LPS/IFN-γ stimulated microglia: significantly inhibited

## TGF-β
[2]
  microglial production of TNF-α: concurrent decreases
[3]
  microglial production of NO: concurrent decreases
